pIC50: −log10 of the molar value.
Target: human PDE10A (UniProt Q9Y233)
Test: Measurement of PDE activity (recombinant enzyme, HTRF cAMP kit)
Assay type: biochemical
Conditions: Table 1, substrate 20 nM for PDE10, 60 minutes at 29 C, read-out: IC50
Protocol: The recombinant PDE proteins are used in in vitro enzymatic reaction for measurement of PDE activity. These recombinant proteins, including PDE10A (human, rat and mouse PDE10) and isoforms of PDEs 1, 3, 4, and 5, were purchased from commercial vendor BPS Bioscience. The enzymatic activity of PDEs was determined by cAMP measurement kit from CisBio (IBA) using HTRF technology.
The PDE enzymatic reaction was carried out in assay buffer (20 mM Tris-HCl pH7.5, 10 mM MgCl2, 0.1% bovine serum albumin) containing enzyme and substrate. The PDE enzymes concentration ranged from 10 pM-250 pM, depending on each enzyme's specific activity. The substrate cyclic nucleotide (cAMP or cGMP) concentration used in the assay was 20 nM for PDE10, and 100 nM for other PDEs. The inhibitory effect of compound was determined by incubating various concentration of inhibitor in the enzymatic assay. Typically, compound was serial diluted in DMSO then further diluted in assay buffer. Next, the compound at varying concentration was mixed with PDE enzyme. The reaction was initiated by addition of cyclic nucleotide substrate, and incubated for 60 minutes at 29 C. The reaction was stopped by addition of lysis buffer from assay kit. The cAMP-d2 and anti-cAMP cryptate in the lysis buffer detected the level of cAMP left from the PDE hydrolysis reaction. The PDE activity is reversely correlated with the amount of cAMP left in the reaction and can be converted to the percent activity of an uninhibited control (100%). Thus, IC50 value of inhibitor can be obtained by plotting inhibitor concentration against PDE activity at that concentration.

Chain of human PDE10A (Q9Y233 290-1055 limits assumed): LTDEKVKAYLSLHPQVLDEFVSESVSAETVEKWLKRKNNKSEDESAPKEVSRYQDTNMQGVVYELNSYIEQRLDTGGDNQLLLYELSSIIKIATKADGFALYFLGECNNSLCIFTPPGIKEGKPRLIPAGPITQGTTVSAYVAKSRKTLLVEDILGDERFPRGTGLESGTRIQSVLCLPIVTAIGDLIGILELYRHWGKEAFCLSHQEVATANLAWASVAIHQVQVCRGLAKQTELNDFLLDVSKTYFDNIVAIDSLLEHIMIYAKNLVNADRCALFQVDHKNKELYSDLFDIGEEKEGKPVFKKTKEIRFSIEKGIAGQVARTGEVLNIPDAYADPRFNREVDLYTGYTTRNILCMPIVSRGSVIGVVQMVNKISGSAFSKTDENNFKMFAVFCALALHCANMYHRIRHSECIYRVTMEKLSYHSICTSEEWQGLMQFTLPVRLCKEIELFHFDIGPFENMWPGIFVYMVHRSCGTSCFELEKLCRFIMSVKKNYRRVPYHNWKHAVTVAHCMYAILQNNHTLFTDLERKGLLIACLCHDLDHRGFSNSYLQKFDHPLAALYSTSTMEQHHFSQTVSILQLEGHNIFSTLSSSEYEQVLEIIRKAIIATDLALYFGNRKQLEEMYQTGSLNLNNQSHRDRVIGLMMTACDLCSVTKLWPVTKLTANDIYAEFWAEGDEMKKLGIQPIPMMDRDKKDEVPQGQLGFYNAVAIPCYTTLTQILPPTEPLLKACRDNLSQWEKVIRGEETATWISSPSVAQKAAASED

Structure (SMILES)	pIC50
O=c1c2c(-c3ccc4c(c3)OCO4)csc2cnn1CCc1ccc2ccccc2n1 [Example 54, 3-(1,3-benzodioxol-5-yl)-5-[2-(quinolin-2-yl)ethyl]thieno[2,3-d]pyridazin-4(5H)-one]	6.70 to 7.00
CC(C)Cn1cc(-c2csc3cnn(CCc4ccc5ccccc5n4)c(=O)c23)cn1 [Example 57, 3-[1-(2-methylpropyl)-1H-pyrazol-4-yl]-5-[2-(quinolin-2-yl)ethyl]thieno[2,3-d]pyridazin-4(5H)-one]	6.30 to 6.70
O=c1c2c(-c3ccc(F)c(F)c3F)csc2cnn1CCc1ccc2ccccc2n1 [Example 60, 5-[2-(quinolin-2-yl)ethyl]-3-(2,3,4-trifluorophenyl)thieno[2,3-d]pyridazin-4(5H)-one]	6.30 to 6.70
Cc1cc(F)ccc1-c1csc2cnn(CCc3ccc4ccccc4n3)c(=O)c12 [Example 62, 3-(4-fluoro-2-methylphenyl)-5-[2-(quinolin-2-yl)ethyl]thieno[2,3-d]pyridazin-4(5H)-one]	6.30 to 6.70
O=c1c2c(-c3ccc(F)cc3Cl)csc2cnn1CCc1ccc2ccccc2n1 [Example 64, 3-(2-chloro-4-fluorophenyl)-5-[2-(quinolin-2-yl)ethyl]thieno[2,3-d]pyridazin-4(5H)-one]	6.30 to 6.70
O=c1c2c(-c3ccc(F)cc3F)csc2cnn1CCc1ccc2ccccc2n1 [Example 67, 3-(2,4-difluorophenyl)-5-[2-(quinolin-2-yl)ethyl]thieno[2,3-d]pyridazin-4(5H)-one]	6.70 to 7.00
O=c1c2c(-c3cccc(F)c3F)csc2cnn1CCc1ccc2ccccc2n1 [Example 70, 3-(2,3-difluorophenyl)-5-[2-(quinolin-2-yl)ethyl]thieno[2,3-d]pyridazin-4(5H)-one]	6.70 to 7.00
COc1ccc(-c2csc3cnn(CCc4ccc5ccccc5n4)c(=O)c23)cc1OC [Example 71, 3-(3,4-dimethoxyphenyl)-5-[2-(quinolin-2-yl)ethyl]thieno[2,3-d]pyridazin-4(5H)-one]	6.30 to 6.70
O=c1c2c(-c3ccc(F)c(F)c3)csc2cnn1CCc1ccc2ccccc2n1 [Example 72, 3-(3,4-difluorophenyl)-5-[2-(quinolin-2-yl)ethyl]thieno[2,3-d]pyridazin-4(5H)-one]	6.70 to 7.00
O=c1c2c(-c3cc(F)ccc3F)csc2cnn1CCc1ccc2ccccc2n1 [Example 76, 3-(2,5-difluorophenyl)-5-[2-(quinolin-2-yl)ethyl]thieno[2,3-d]pyridazin-4(5H)-one]	6.70 to 7.00
COc1ccc(-c2csc3cnn(CCc4ccc5ccccc5n4)c(=O)c23)cc1F [Example 78, 3-(3-fluoro-4-methoxyphenyl)-5-[2-(quinolin-2-yl)ethyl]thieno[2,3-d]pyridazin-4(5H)-one]	6.30 to 6.70
COc1cccc(-c2csc3cnn(CCc4ccc5ccccc5n4)c(=O)c23)c1F [Example 79, 3-(2-fluoro-3-methoxyphenyl)-5-[2-(quinolin-2-yl)ethyl]thieno[2,3-d]pyridazin-4(5H)-one]	6.30 to 6.70
O=c1c2c(-c3cc(F)cc(F)c3)csc2cnn1CCc1ccc2ccccc2n1 [Example 80, 3-(3,5-difluorophenyl)-5-[2-(quinolin-2-yl)ethyl]thieno[2,3-d]pyridazin-4(5H)-one]	6.70 to 7.00
O=c1c2c(-c3ccccc3)csc2cnn1CCc1ccc2ccccc2n1 [Example 85, 3-phenyl-5-[2-(quinolin-2-yl)ethyl]thieno[2,3-d]pyridazin-4(5H)-one]	6.70 to 7.00
Cc1ccc(-c2csc3cnn(CCc4ccc5ccccc5n4)c(=O)c23)c(F)c1 [Example 90, 3-(2-fluoro-4-methylphenyl)-5-[2-(quinolin-2-yl)ethyl]thieno[2,3-d]pyridazin-4(5H)-one]	6.30 to 6.70
COc1ccc(F)c(-c2csc3cnn(CCc4ccc5ccccc5n4)c(=O)c23)c1 [Example 91, 3-(2-fluoro-5-methoxyphenyl)-5-[2-(quinolin-2-yl)ethyl]thieno[2,3-d]pyridazin-4(5H)-one]	6.70 to 7.00
Cc1ccc(-c2cccc3cnn(CCc4ccc5ccccc5n4)c(=O)c23)cc1 [Example 100, 8-(4-Methylphenyl)-2-[2-(quinolin-2-yl)ethyl]phthalazin-1(2H)-one]	6.30 to 6.70
COc1ccc(-c2cccc3cnn(CCc4ccc5ccccc5n4)c(=O)c23)cc1 [Example 104, 8-(4-Methoxyphenyl)-2-[2-(quinolin-2-yl)ethyl]phthalazin-1(2H)-one]	6.70 to 7.00
O=c1c2c(-c3ccc(F)cc3)cccc2cnn1CCc1ccc2ccccc2n1 [Example 105, 8-(4-Fluorophenyl)-2-[2-(quinolin-2-yl)ethyl]phthalazin-1(2H)-one]	6.70 to 7.00
O=c1c2c(-c3ccccc3Cl)cccc2cnn1CCc1ccc2ccccc2n1 [Example 108, 8-(2-chlorophenyl)-2-[2-(quinolin-2-yl)ethyl]phthalazin-1(2H)-one]	6.30 to 6.70
Cc1ccccc1-c1cccc2cnn(CCc3ccc4ccccc4n3)c(=O)c12 [Example 109, 8-(2-Methylphenyl)-2-[2-(quinolin-2-yl)ethyl]phthalazin-1(2H)-one]	6.30 to 6.70

Other lines, results leading:

pIC50	Structure (SMILES)
> 7.00	Cc1cc(-c2csc3cnn(CCc4ccc5ccccc5n4)c(=O)c23)ccn1 [Example 51, 3-(2-methylpyridin-4-yl)-5-[2-(quinolin-2-yl)ethyl]thieno[2,3-d]pyridazin-4(5H)-one]
6.70 to 7.00	COc1cncc(-c2csc3cnn(CCc4ccc5ccccc5n4)c(=O)c23)c1 [Example 52, 3-(5-methoxypyridin-3-yl)-5-[2-(quinolin-2-yl)ethyl]thieno[2,3-d]pyridazin-4(5H)-one]
> 7.00	O=c1c2c(-c3ccc4ncccc4c3)csc2cnn1CCc1ccc2ccccc2n1 [Example 55, 3-(quinolin-6-yl)-5-[2-(quinolin-2-yl)ethyl]thieno[2,3-d]pyridazin-4(5H)-one]
> 7.00	Cn1cc(-c2csc3cnn(CCc4ccc5ccccc5n4)c(=O)c23)cn1 [Example 56, 3-(1-methyl-1H-pyrazol-4-yl)-5-[2-(quinolin-2-yl)ethyl]thieno[2,3-d]pyridazin-4(5H)-one]
> 7.00	COc1ncc(-c2csc3cnn(CCc4ccc5ccccc5n4)c(=O)c23)cn1 [Example 59, 3-(2-methoxypyrimidin-5-yl)-5-[2-(quinolin-2-yl)ethyl]thieno[2,3-d]pyridazin-4(5H)-one]
> 7.00	O=c1c2c(-c3ccc4[nH]ncc4c3)csc2cnn1CCc1ccc2ccccc2n1 [Example 87, 3-(1H-indazol-5-yl)-5-[2-(quinolin-2-yl)ethyl]thieno[2,3-d]pyridazin-4(5H)-one]
> 7.00	Cn1nccc1-c1csc2cnn(CCc3ccc4ccccc4n3)c(=O)c12 [Example 88, 3-(1-methyl-1H-pyrazol-5-yl)-5-[2-(quinolin-2-yl)ethyl]thieno[2,3-d]pyridazin-4(5H)-one]
> 7.00	O=c1c2c(-c3ccncc3)csc2cnn1CCc1ccc2cc(F)ccc2n1 [Example 93, 5-[2-(6-Fluoroquinolin-2-yl)ethyl]-3-(pyridin-4-yl)thieno[2,3-d]pyridazin-4(5H)-one]
> 7.00	O=c1c2c(-c3ccncc3)csc2cnn1CC(F)(F)c1ccc2ccccc2n1 [Example 94, 5-[2,2-Difluoro-2-(quinolin-2-yl)ethyl]-3-(pyridin-4-yl)thieno[2,3-d]pyridazin-4(5H)-one]
> 7.00	O=c1c2c(-c3ccncc3)csc2cnn1CCc1ccc2sccc2n1 [Example 95, 3-(Pyridin-4-yl)-5-[2-(thieno[3,2-b]pyridin-5-yl)ethyl]thieno[2,3-d]pyridazin-4(5H)-one]
> 7.00	O=c1c2c(-c3ccncc3)csc2cnn1CCc1cn2ccccc2n1 [Example 96, 5-[2-(Imidazo[1,2-a]pyridin-2-yl)ethyl]-3-(pyridin-4-yl)thieno[2,3-d]pyridazin-4(5H)-one]
> 7.00	O=c1c2c(-c3ccncc3)csc2cnn1CCc1cn2ccc(F)cc2n1 [Example 97, 5-[2-(7-Fluoroimidazo[1,2-a]pyridin-2-yl)ethyl]-3-(pyridin-4-yl)thieno[2,3-d]pyridazin-4(5H)-one]
> 7.00	O=c1c2c(-c3ccncc3)cccc2cnn1CCc1ccc2ccccc2n1 [Example 98, 8-(Pyridin-4-yl)-2-[2-(quinolin-2-yl)ethyl]phthalazin-1(2H)-one]
> 7.00	N#Cc1ccc(-c2cccc3cnn(CCc4ccc5ccccc5n4)c(=O)c23)cc1 [Example 103, 4-{4-Oxo-3-[2-(quinolin-2-yl)ethyl]-3,4-dihydrophthalazin-5-yl}benzonitrile]
> 7.00	N#CCc1ccc(-c2cccc3cnn(CCc4ccc5ccccc5n4)c(=O)c23)cc1 [Example 106, (4-{4-Oxo-3-[2-(quinolin-2-yl)ethyl]-3,4-dihydrophthalazin-5-yl}phenyl)acetonitrile]
> 7.00	O=c1c2c(-c3ccc(O)cc3)cccc2cnn1CCc1ccc2ccccc2n1 [Example 107, 8-(4-Hydroxyphenyl)-2-[2-(quinolin-2-yl)ethyl]phthalazin-1(2H)-one]
> 7.00	O=c1c2c(-c3ccccc3F)cccc2cnn1CCc1ccc2ccccc2n1 [Example 111, 8-(2-Fluorophenyl)-2-[2-(quinolin-2-yl)ethyl]phthalazin-1(2H)-one]
